The values below come from patent publication US6852692B1, “Composition for promoting passive extension of bladder smooth muscle” (Shionogi & Co., Ltd., priority 1999, dated 2005).

Test [1] has as its system mesenteric artery. As to conditions: Nakamura et al., Jpn. J. Pharmacol. 67, 259-262 (1995), FIG. 1; cited from earlier work.
Test [2] relates to urinary bladder. As to conditions: Nishimura et al., British J. Pharmacology, 120, 193-200 (1997), FIG. 6; cited from earlier work.
Test [3] has as its system urinary bladder strips. As to the kind of experiment: Extension of rat urinary bladder strips under 1 g tension (isotonic transducer). The conditions noted are these: 100 nM adrenomedullin in Tyrode's solution, tension 1 g, male rat bladder strips, repeated five times, FIG. 2. From the text: 8 to 16 weeks old male rats were sacrificed by hammering their heads. Thereafter, the rats were decapitated, followed by exsanguination. The urinary bladders were isolated from the rats. Each isolated urinary bladder was cut into four portions, thereby obtaining urinary bladder strips (FIG. 1).
The effect of adrenomedullin on the rat urinary bladder was examined by measuring contractions of the urinary bladder strips using an isotonic transducer TD-112S (manufactured Nippon Kohden Corporation) where the tension was 1 g.
The urinary bladder strips were firstly immersed in 30 ml of Tyrode's solution with 100 nM adrenomedullin (experimental sample) or without it (control sample). In this situation, the sections were attached to the […] transducer where the tension was 1 g, to continuously measure relaxation of the urinary bladder. The composition of the Tyrode's solution is as follows: 139 mM NaCl, 2.7 mM KCl, 11.9 mM NaHCO3, 2.6 mM MgCl2.6H2O, 0.4 mM NaH2PO4.2H2O, 1.7 mM CaCl2, and 5.5 mM glucose; pH 7.4).
The above-described experiment was repeated five times. Solid colored circles indicate the results of the experimental sample, while plain circles indicate averages of the control sample. Vertical bars indicate the standard deviation of a two-way analysis of variance. The vertical axis indicates the length of relaxation (mm), while the horizontal axis indicate time (minutes).

In test [4] the test system is urinary bladder strips. Kind of test: Static tension and acetylcholine-induced contraction of rat urinary bladder strips (isometric transducer). As to the method:
Urinary bladder strips were prepared in a manner similar to that of Example 1. The urinary bladder sections were attached to an isometric transducer FD pickup TB611T (manufactured by Nippon Kohden Corporation) in Tyrode's solution. Contraction of the urinary bladder was continuously measured. Firstly, 30 nM to 1 mM acetylcholine was added to the Tyrode's solution. […] In FIG. 3, the vertical axis indicates tension (unit: g), while the horizontal axis indicates time. Contraction induced by acetylcholine was confirmed, followed by washing out acetylcholine. Thereafter, 100 nM adrenomedullin was added to the Tyrode's solution. […] Further, 30 nM to 1 mM acetylcholine was added to the Tyrode's solution. As a result, recontraction of the urinary bladder occured.

Turning to “adrenomedullin: synthesized peptide consisting of an amino acid sequence from Tyr in position 1 to Tyr in position 50 of SEQ ID NO: 6 (rat-derived)”, in test [1], the “extension of contracted mesenteric artery by addition of adrenomedullin” value is reported as “extended by addition of adrenomedullin in a concentration-dependent manner”. For the same substance, in test [2], the “contraction or extension (active extension) of the urinary bladder on addition of adrenomedullin” value is given as “does not cause contraction or extension”. In addition, the “extension (length of relaxation) of the urinary bladder wall versus absence of adrenomedullin” value in test [3] is listed as “more extended”. In addition, the “contraction (static tension) of the urinary bladder after addition of adrenomedullin alone” value in test [4] (100 nM adrenomedullin in Tyrode's solution, after washing out acetylcholine, FIG. 3) is on record as “not contracted”. In addition, in test [4] (100 nM adrenomedullin, 30 nM to 1 mM acetylcholine), the “contraction induced by acetylcholine in the presence of adrenomedullin versus acetylcholine alone” value was “not significantly different”.
